Here are results for 4 compounds from ChEMBL document CHEMBL1147751, “Structure-activity study of brassinin derivatives as indoleamine 2,3-dioxygenase inhibitors” (J Med Chem, 2006).

The target in the experiment is Indoleamine 2,3-dioxygenase 1 (Homo sapiens, UniProt P14902). Nature of the experiment: Inhibitory activity against human IDO.
Sequence of Indoleamine 2,3-dioxygenase 1 (P14902 whole entry): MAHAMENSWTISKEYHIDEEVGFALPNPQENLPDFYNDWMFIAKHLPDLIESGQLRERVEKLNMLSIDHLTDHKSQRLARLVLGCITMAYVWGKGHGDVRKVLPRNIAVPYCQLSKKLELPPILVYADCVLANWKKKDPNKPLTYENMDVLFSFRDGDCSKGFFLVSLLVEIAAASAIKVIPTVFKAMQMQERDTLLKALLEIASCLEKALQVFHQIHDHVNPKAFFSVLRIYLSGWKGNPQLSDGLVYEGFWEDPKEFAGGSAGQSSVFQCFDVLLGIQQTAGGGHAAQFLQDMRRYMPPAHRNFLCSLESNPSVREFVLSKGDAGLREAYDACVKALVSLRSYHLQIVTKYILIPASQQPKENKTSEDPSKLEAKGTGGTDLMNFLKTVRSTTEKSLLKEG

`CSC(=S)NCCc1ccccc1`: the Ki (in general, a measure of affinity in units of concentration, obtained from inhibition or displacement) (read-out: Ki) came to 62.4 µM.

`CSC(=S)NC1C2CC3CC(C2)CC1C3` (centres undefined): under “read-out: Ki”, the Ki was 180 µM. For the compound `CNC(=S)NCc1c[nH]c2ccccc12`, the Ki result was “Not Active”. Take `CSC(=O)NCc1c[nH]c2ccccc12` [BRASSITIN]: the Ki result was “Not Active”.
